This test deals with T1, FKBP51FK1 (Homo sapiens, UniProt Q13451).
T1 construct: FKBP51FK1
T1 sequence (Q13451 42-130 limits assumed): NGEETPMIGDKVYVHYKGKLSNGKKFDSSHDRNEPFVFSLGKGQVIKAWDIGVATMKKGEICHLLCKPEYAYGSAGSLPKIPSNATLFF
As to the kind of experiment: Binding affinities of exemplary compounds to FKBP51. Here is the method:
Binding to FKBP51 is an important prerequisite in order to allow degradation of FKBP51. Thus, the binding affinities of the newly synthesized molecules (table 1) were tested.

This passage reports Ki results from EP3875456A1, “HETERO-BIFUNCTIONAL PROTEOLYSIS-TARGETING CHIMERAS (PROTACS) FOR THE SELECTIVE DEGRADATION OF FK506-BINDING PROTEINS (FKBPS)” (Technische Universität Darmstadt, priority 2020, dated 2021).

Each structure is given as a SMILES string.

In the case of `C#CCOc1cc(CCC(OC(=O)C2CCCCN2C(=O)[C@H](c2cc(OC)c(OC)c(OC)c2)C2CCCCC2)c2cccc(OC)c2)ccc1OC` (stereo in doubt) [Molecule (10), (S)-(R)-3-(4-methoxy-3-(prop-2-yn-1-yloxy)phenyl)-1-(3-methoxyphenyl)propyl 1-((S)-2-cyclohexyl-2-(3,4,5-trimethoxyphenyl)acetyl)piperidine-2-carboxylate], the affinity corresponds to a Ki of 149 ± 39 nM.
On to `COc1cccc([C@H](CCc2ccc(OCc3cn(CCOCCOCC(=O)N[C@H](C(=O)N4C[C@H](O)C[C@H]4C(=O)NCc4ccc(-c5scnc5C)cc4)C(C)(C)C)nn3)c(OC)c2)OC(=O)[C@H]2CCCCN2C(=O)[C@H](c2cc(OC)c(OC)c(OC)c2)C2CCCCC2)c1` [MTQ329, (S)-(R)-3-(4-((1-(2-(2-(2-(((S)-1-((2S,4R)-4-Hydroxy-2-((4-(4-methylthiazol-5-yl)benzyl)carbamoyl)pyrrolidin-1-yl)-3,3-dimethyl-1-oxobutan-2-yl)amino)-2-oxoethoxy)ethoxy)ethyl)-1H-1,2,3-triazol-4-yl)methoxy)-3-methoxyphenyl)-1-(3-methoxyphenyl)propyl 1-((S)-2-cyclohexyl-2-(3,4,5-trimethoxyphenyl)acetyl)piperidine-2-carboxylate], for which affinity was put at a Ki of 60 ± 16 nM. Against the preceding molecule, the Ki is about 2.5-fold lower.
Consider `COc1ccc(CC[C@H](OC(=O)[C@H]2CCCCN2C(=O)[C@H](c2cc(OC)c(OC)c(OC)c2)C2CCCCC2)c2cccc(OCc3cn(CCOCCOCCOCC(=O)N[C@H](C(=O)N4C[C@H](O)C[C@H]4C(=O)NCc4ccc(-c5scnc5C)cc4)C(C)(C)C)nn3)c2)cc1OC` [MTQ201, (S)-(R)-3-(3,4-Dimethoxyphenyl)-1-(3-((1-((S)-13-((2S,4R)-4-hydroxy-2-((4-(4-methylthiazol-5-yl)benzyl)carbamoyl)pyrrolidine-1-carbonyl)-14,14-dimethyl-11-oxo-3,6,9-trioxa-12-azapentadecyl)-1H-1,2,3-triazol-4-yl)methoxy)phenyl)propyl 1-((S)-2-cyclohexyl-2-(3,4,5-trimethoxyphenyl)acetyl)piperidine-2-carboxylate], for which the affinity corresponds to a Ki of 23 ± 7 nM.
The molecule `COc1ccc(CC[C@H](OC(=O)[C@H]2CCCCN2C(=O)[C@H](c2cc(OC)c(OC)c(OC)c2)C2CCCCC2)c2cccc(OCc3cn(CCOCC(=O)N[C@H](C(=O)N4C[C@H](O)C[C@H]4C(=O)NCc4ccc(-c5scnc5C)cc4)C(C)(C)C)nn3)c2)cc1OC` (stereo in doubt) [MTQ199, (S)-(R)-3-(3,4-Dimethoxyphenyl)-1-(3-((1-(2-(2-(((S)-1-((2S,4R)-4-hydroxy-2-((4-(4-methylthiazol-5-yl)benzyl)carbamoyl)pyrrolidin-1-yl)-3,3-dimethyl-1-oxobutan-2-yl)amino)-2-oxoethoxy)ethyl)-1H-1,2,3-triazol-4-yl)methoxy)phenyl)propyl 1-((S)-2-cyclohexyl-2-(3,4,5-trimethoxyphenyl)acetyl)piperidine-2-carboxylate] had a Ki of 25 ± 6 nM.
Take `COc1ccc(CC[C@@H](OC(=O)[C@@H]2CCCCN2C(=O)[C@H](c2cc(OC)c(OC)c(OC)c2)C2CCCCC2)c2cccc(OCc3cn(CCOCCOCCOCCOCCOCC(=O)Nc4cccc5c4C(=O)N(C4CCC(=O)NC4=O)C5=O)nn3)c2)cc1OC` (stereo partly drawn) [MTQ208, (2S)-(1R)-3-(3,4-Dimethoxyphenyl)-1-(3-((1-(17-((2-(2,6-dioxopiperidin-3-yl)-1,3-dioxoisoindolin-4-yl)amino)-17-oxo-3,6,9,12,15-pentaoxaheptadecyl)-1H-1,2,3-triazol-4-yl)methoxy)phenyl)propyl 1-((S)-2-cyclohexyl-2-(3,4,5-trimethoxyphenyl)acetyl)piperidine-2-carboxylate]: the affinity, expressed as Ki, was 5 ± 1 nM.
`COc1ccc(CC[C@@H](OC(=O)[C@@H]2CCCCN2C(=O)[C@H](c2cc(OC)c(OC)c(OC)c2)C2CCCCC2)c2cccc(OCc3cn(CCOCCOCCOCCOCC(=O)Nc4cccc5c4C(=O)N(C4CCC(=O)NC4=O)C5=O)nn3)c2)cc1OC` (stereo partly drawn) [MTQ207, (2S)-(1R)-3-(3,4-Dimethoxyphenyl)-1-(3-((1-(14-((2-(2,6-dioxopiperidin-3-yl)-1,3-dioxoisoindolin-4-yl)amino)-14-oxo-3,6,9,12-tetraoxatetradecyl)-1H-1,2,3-triazol-4-yl)methoxy)phenyl)propyl 1-((S)-2-cyclohexyl-2-(3,4,5-trimethoxyphenyl)acetyl)piperidine-2-carboxylate] registered a Ki of 18 ± 4 nM.
In turn, `COc1cccc([C@H](CCc2ccc(OCc3cn(CCOCC(=O)N[C@H](C(=O)N4C[C@H](O)C[C@H]4C(=O)NCc4ccc(-c5scnc5C)cc4)C(C)(C)C)nn3)c(OC)c2)OC(=O)[C@H]2CCCCN2C(=O)[C@H](c2cc(OC)c(OC)c(OC)c2)C2CCCCC2)c1` [MTQ328, (S)-(R)-3-(4-((1-(2-(2-(((S)-1-((2S,4R)-4-Hydroxy-2-((4-(4-methylthiazol-5-yl)benzyl)carbamoyl)pyrrolidin-1-yl)-3,3-dimethyl-1-oxobutan-2-yl)amino)-2-oxoethoxy)ethyl)-1H-1,2,3-triazol-4-yl)methoxy)-3-methoxyphenyl)-1-(3-methoxyphenyl)propyl 1-((S)-2-cyclohexyl-2-(3,4,5-trimethoxyphenyl)acetyl)piperidine-2-carboxylate] yielded a Ki of 47 ± 19 nM.
`COc1cccc([C@@H](CCc2ccc(OCc3cn(CCOCC(=O)Nc4cccc5c4C(=O)N(C4CCC(=O)NC4=O)C5=O)nn3)c(OC)c2)OC(=O)[C@@H]2CCCCN2C(=O)[C@H](c2cc(OC)c(OC)c(OC)c2)C2CCCCC2)c1` (stereo partly drawn) [MTQ333, (25)-(1R)-3-(4-((1-(2-(2-((2-(2,6-Dioxopiperidin-3-yl)-1,3-dioxoisoindolin-4-yl)amino)-2-oxoethoxy)ethyl)-1H-1,2,3-triazol-4-yl)methoxy)-3-methoxyphenyl)-1-(3-methoxyphenyl)propyl 1-((S)-2-cyclohexyl-2-(3,4,5-trimethoxyphenyl)acetyl)piperidine-2-carboxylate]: the affinity, expressed as Ki, was 22 ± 6 nM.
Take `COc1cccc([C@@H](CCc2ccc(OCc3cn(CCOCCOCCOCCOCC(=O)N[C@H](C(=O)N4C[C@H](O)C[C@H]4C(=O)NCc4ccc(-c5scnc5C)cc4)C(C)(C)C)nn3)c(OC)c2)OC(=O)[C@@H]2CCCCN2C(=O)[C@H](c2cc(OC)c(OC)c(OC)c2)C2CCCCC2)c1` [MTQ331, (S)-(R)-3-(4-((1-((5)-16-((25,4R)-4-Hydroxy-2-((4-(4-methylthiazol-5-yl)benzyl)carbamoyl)pyrrolidine-l-carbonyl)-17,17-dimethyl-14-oxo-3,6,9,12-tetraoxa-15-azaoctadecyl)-1H-1,2,3-triazol-4-yl)methoxy)-3-methoxyphenyl)-1-(3-methoxyphenyl)propyl 1-((S)-2-cyclohexyl-2-(3,4,5-trimethoxyphenyl)acetyl)piperidine-2-carboxylate]: the affinity, expressed as Ki, was 59 ± 22 nM.
Molecule `C#CCOc1cccc([C@H](CCc2ccc(OC)c(OC)c2)OC(=O)[C@H]2CCCCN2C(=O)[C@H](c2cc(OC)c(OC)c(OC)c2)C2CCCCC2)c1` (stereo in doubt) [Molecule (9), (S)-(R)-3-(3,4-Dimethoxyphenyl)-1-(3-(prop-2-yn-1-yloxy)phenyl)propyl 1-((S)-2-cyclohexyl-2-(3,4,5-trimethoxyphenyl)acetyl)piperidine-2-carboxylate] showed a Ki of 32 ± 7 nM.
`COc1cccc([C@@H](CCc2ccc(OCc3cn(CCOCCOCC(=O)Nc4cccc5c4C(=O)N(C4CCC(=O)NC4=O)C5=O)nn3)c(OC)c2)OC(=O)[C@@H]2CCCCN2C(=O)[C@H](c2cc(OC)c(OC)c(OC)c2)C2CCCCC2)c1` (stereo partly drawn) [MTQ334, (25)-(1R)-3-(4-((1-(2-(2-(2-((2-(2,6-Dioxopiperidin-3-yl)-1,3-dioxoisoindolin-4-yl)amino)-2-oxoethoxy)ethoxy)ethyl)-1H-1,2,3-triazol-4-yl)methoxy)-3-methoxyphenyl)-1-(3-methoxyphenyl)propyl 1-((S)-2-cyclohexyl-2-(3,4,5-trimethoxyphenyl)acetyl)piperidine-2-carboxylate] showed an inhibition constant (Ki) of 21 ± 10 nM.
With `COc1cccc([C@@H](CCc2ccc(OCc3cn(CCOCCOCCOCCOCCOCC(=O)N[C@H](C(=O)N4C[C@H](O)C[C@H]4C(=O)NCc4ccc(-c5scnc5C)cc4)C(C)(C)C)nn3)c(OC)c2)OC(=O)[C@@H]2CCCCN2C(=O)[C@H](c2cc(OC)c(OC)c(OC)c2)C2CCCCC2)c1` [MTQ332, (S)-(R)-3-(4-((1-((S)-19-((2S,4R)-4-Hydroxy-2-((4-(4-methylthiazo1-5-yl)benzyl)carbamoyl)pyrrolidine-1-carbonyl)-20,20-dimethyl-17-oxo-3,6,9,12,15-pentaoxa-18-azahenicosyl)-1H-1,2,3-triazol-4-yl)methoxy)-3-methoxyphenyl)-1-(3-methoxyphenyl)propyl 1-((S)-2-cyclohexyl-2-(3,4,5-trimethoxyphenyl)acetyl)piperidine-2-carboxylate], the Ki was found to be 34 ± 10 nM.
The molecule `COc1ccc(CC[C@H](OC(=O)[C@H]2CCCCN2C(=O)[C@H](c2cc(OC)c(OC)c(OC)c2)C2CCCCC2)c2cccc(OCc3cn(CCOCCOCCOCCOCCOCC(=O)N[C@H](C(=O)N4C[C@H](O)C[C@H]4C(=O)NCc4ccc(-c5scnc5C)cc4)C(C)(C)C)nn3)c2)cc1OC` [MTQ203, (S)-(R)-3-(3,4-Dimethoxyphenyl)-1-(3-((1-((S)-19-((2S,4R)-4-hydroxy-2-((4-(4-methylthiazol-5-yl)benzyl)carbamoyl)pyrrolidine-1-carbonyl)-20,20-dimethyl-17-oxo-3,6,9,12,15-pentaoxa-18-azahenicosyl)-1H-1,2,3-triazol-4-yl)methoxy)phenyl)propyl 1-((S)-2-cyclohexyl-2-(3,4,5-trimethoxyphenyl)acetyl)piperidine-2-carboxylate] registered a Ki of 12 ± 3 nM.
For the molecule `COc1ccc(CC[C@@H](OC(=O)[C@@H]2CCCCN2C(=O)[C@H](c2cc(OC)c(OC)c(OC)c2)C2CCCCC2)c2cccc(OCc3cn(CCOCC(=O)Nc4cccc5c4C(=O)N(C4CCC(=O)NC4=O)C5=O)nn3)c2)cc1OC` (stereo partly drawn) [MTQ204, (25)-(1R)-3-(3,4-Dimethoxyphenyl)-1-(3-((1-(2-(2-((2-(2,6-dioxopiperidin-3-yl)-1,3-dioxoisoindolin-4-yl)amino)-2-oxoethoxy)ethyl)-1H-1,2,3-triazol-4-yl)methoxy)phenyl)propyl1-((S)-2-cyclohexyl-2-(3,4,5-trimethoxyphenyl)acetyl)piperidine-2-carboxylate], affinity was put at a Ki of 19 ± 5 nM.
